Tested on: NCI-H226 xenograft
Experiment: Inhibition of mouse xenograft NCI-H226 tumors
Format: in vivo, BALB/c nude mice
Details: Day 27, p.o., QD
Excerpt: This study evaluated the in vivo therapeutic efficacy of TEAD inhibitors in the treatment of the subcutaneous lung cancer NCI-H226 xenograft model in female BALB/c nude mice.
• ANOVA Analysis of variance • BW Body weight • BWL Body weight loss • FFPE Formalin fixed paraffin embedded • IACUC Institutional animal care and use committee • MTV Mean tumor volume • N/A Not available or not applicable • p.o. Oral (ly) • QD Once a day • REG REG=[(T0−Ti)/T0]×100%; • Ti as the mean tumor volume of the treatment group on the measurement day; • T0 as the mean tumor volume of the treatment group on Day 0. • ROA Route of administration • RT Room temperature • RTV Relative tumor volume • SD Standard deviation • SEM Standard error of mean • SOC Standard of care used in clinical setting for a specific disease • TBD To be determined • T/C The Ti/Ci value (%): T/C %=Ti/Ci×100; • Ti and Ci are the mean tumor volumes of the treatment and control groups, respectively, on a given day. • TGI Tumor growth inhibition; TGI %=(1−Ti/Ci)×100; • Ti and Ci are the mean tumor volumes of the treatment and control groups, respectively, on a given day. • TV Tumor volume • PK/PD Pharmacokinetics/Pharmacodynamics • ΔInhibition Mean % ΔInhibition=((Ci−C0)−(Ti−T0))/(Ci−C0)*100% • Ti and Ci are the mean tumor volumes of the treatment and control groups, respectively, on a given day. T0 and C0 as the mean tumor volumes of the treatment and vehicle groups on Day 0.
• Species Mus musculus • Strain Balb/c nude • Supplier GemPharmatech Co., Ltd • Gender Female • No. of Animals Ordered 68 (45 plus 23 spare) • No. of Animals Assigned 45 • to Study • Average Age of Animals 6-8 weeks • at Study Initiation
The NCI-H226 cells (CL-00364) cancer cells were maintained in vitro with RPMI1640 medium supplemented with 10% fetal bovine serum at 37° C. in an atmosphere of 5% CO2 in the air. The cells in exponential growth phase were harvested and quantitated by cell counter before tumor inoculation.
Each mouse was inoculated subcutaneously in the right front flank region with NCI-H226 tumor cells (1×10^7) in 0.2 ml of PBS mixed with Matrigel (1:1) for tumor development.
The randomization was performed when the mean tumor size reached 138.81 mm^3. 45 mice were enrolled in the study. All animals were randomly allocated to 9 study groups, 5 mice in each group. Randomization was performed based on “Matched distribution” method/“Stratified” method (StudyDirector™ software, version 3.1.399.19)/randomized block design. The date of randomization was denoted as day 0.
The treatment was initiated on the same day of randomization (day 0) per study design.
After tumor cells inoculation, the animals were checked daily for morbidity and mortality. During routine monitoring, the animals were checked for any effects of tumor growth and treatments on behavior such as mobility, food and water consumption, body weight gain/loss (Body weights were measured twice per week after randomization), eye/hair matting and any other abnormalities. Mortality and observed clinical signs were recorded for individual animals in detail.
Tumor volumes were measured twice per week after randomization in two dimensions using a caliper, and the volume was expressed in mm^3 using the formula: “V=(L×W×W)/2, where V is tumor volume, L is tumor length (the longest tumor dimension) and W is tumor width (the longest tumor dimension perpendicular to L). Dosing as well as tumor and body weight measurements were conducted in a Laminar Flow Cabinet.
To compare tumor volumes of different groups at a pre-specified day, Bartlett's test was first used to check the assumption of homogeneity of variance across all groups. When the p-value of Bartlett's test was >=0.05, one-way ANOVA was performed to test overall equality of means across all groups. […]

| Structure (SMILES) | T/C (3 mg/kg) [%] | TGI (3 mg/kg) [%] | Tumor Volume (mean ± SEM) (3 mg/kg) [mm^3] | T/C (10 mg/kg) [%] | TGI (10 mg/kg) [%] | Tumor Volume (mean ± SEM) (10 mg/kg) [mm^3] | T/C (25 mg/kg) [%] | TGI (25 mg/kg) [%] | Tumor Volume (mean ± SEM) (25 mg/kg) [mm^3] |
| --- | --- | --- | --- | --- | --- | --- | --- | --- | --- |
| C[C@H](NC(=O)c1cnc2c(C3=CCC(C(F)(F)F)CC3)cccc2c1)c1ccccn1 (stereo partly drawn) [Compound 2, N—((S)-1-(pyridin-2-yl)ethyl)-8-(4-(trifluoromethyl)cyclohex-1-en-1-yl)quinoline-3-carboxamide] | 64.62 | 35.38 | 345.21 ± 85.33 | 45.64 | 54.36 | 243.78 ± 74.70 | 19.66 | 80.34 | 105.03 ± 13.17 |
| O=C(NCc1ncco1)c1cnc2c(C3=CCC(C(F)(F)F)CC3)cccc2c1 (stereo not drawn) [Compound 11, N-(oxazol-2-ylmethyl)-8-(4-(trifluoromethyl)cyclohex-1-en-1-yl)quinoline-3-carboxamide] | 89.83 | 10.17 | 479.84 ± 96.60 | 36.49 | 63.51 | 194.94 ± 42.44 | 21.10 | 78.90 | 112.73 ± 17.20 |

Source: patent US20250223306A1, “TEAD INHIBITORS AND METHODS OF USE” (Sporos BioDiscovery, Inc., priority 2022, published 2025)
